As usually defined, the IC50 is the midpoint of a concentration-inhibition curve. A lower IC50 goes with inhibition by little substance.

One assay has as its system Human HCT116 colon carcinoma cells. The assay can be described thus: HCT116 Colon Carcinoma Cell Growth Inhibition. The settings on record: 72 hr exposure, WST-1 growth fraction. The assay is classed as cell-based. How it is done: HCT116 Colon Carcinoma Cell Growth Inhibition
Human HCT116 colon carcinoma cells were grown monolayer culture in RPMI 1640 medium supplemented with 10% fetal bovine serum and 1% penicillin-streptomycin (GibcoBRL, Grand Island, N.Y.). HCT116 cells in exponential growth phase were exposed to various concentrations of the test compounds at 37° C. for 72 hr in 5% carbon dioxide/air. After exposure to the agent, the cells were washed with 0.9% phosphate buffered saline. Growth inhibition was determined using WST-1 cell proliferation reagent as described above. The results are expressed as the growth fraction of treated cells compared with control cultures. Representative compounds of the present invention were tested for efficacy against the human colon HCT116 tumor cells.
A general note: Formazan colour is commonly taken as a measure of viable cells.
Compound `O=C(NS(=O)(=O)c1ccc2c(c1)OCCO2)c1ccc(Cl)cc1Cl` [Example 23, N-[2,4-dichlorobenzoyl]-2,3-dihydrobenzo[1,4]dioxane-6-sulfonamide] returned an IC50 of 4.1 µM.

As to “N-[2,4-dichlorobenzoyl]-tetrahydrobenzofuran-5-sulfonamide [Example 24]”, it took 40 µM to reach half-maximal inhibition (IC50).

Still in this assay, the particulars now being: Homo sapiens, HCT-116, 72 hr exposure, WST-1 growth fraction.
Take `Cc1cc(Cl)ccc1C(=O)NS(=O)(=O)c1ccc2c(c1)CCO2` [Example 1, N-[4-chloro-2-methylbenzoyl]-2,3-dihydrobenzofuran-5-sulfonamide]: half-maximal inhibition (IC50) required 9.6 µM.

The compound `O=C(NS(=O)(=O)c1ccc2c(c1)OCO2)c1ccc(Cl)cc1Br` [Example 2, N-[4-chloro-2-bromobenzoyl]-benzo[1,3]dioxole-5-sulfonamide] returned an IC50 of 3.9 µM.

In turn, `Cc1cc(Cl)ccc1C(=O)NS(=O)(=O)c1ccc2c(c1)OCO2` [Example 3, N-[4-chloro-2-methylbenzoyl]-benzo[1,3]dioxole-5-sulfonamide] registered an IC50 of 6.4 µM.

The compound `Cc1cc(Br)ccc1C(=O)NS(=O)(=O)c1ccc2c(c1)OCO2` [Example 4, N-[4-bromo-2-methylbenzoyl]-benzo[1,3]dioxole-5-sulfonamide] registered an IC50 of 7.5 µM.

`Cc1ccc(C(=O)NS(=O)(=O)c2ccc3c(c2)OCO3)c(Br)c1` [Example 5, N-[4-methyl-2-bromobenzoyl]-benzo[1,3]dioxole-5-sulfonamide]: the IC50 was determined as 8.5 µM.

As to `O=C(NS(=O)(=O)c1ccc2c(c1)OCO2)c1ccc(Br)cc1Br` [Example 6, N-[2,4-dibromobenzoyl]-benzo[1,3]dioxole-5-sulfonamide], it took 4.6 µM to reach half-maximal inhibition (IC50).

In turn, `O=C(NS(=O)(=O)c1ccc2c(c1)OCO2)c1ccc(Br)cc1Cl` [Example 7, N-[4-bromo-2-chlorobenzoyl]-benzo[1,3]dioxole-5-sulfonamide] had an IC50 of 13.9 µM.

In the case of `O=C(NS(=O)(=O)c1cc2ccccc2s1)c1ccc(Cl)cc1Cl` [Example 16, N-[2,4-dichlorobenzoyl]-benzo[b]thiophene-2-sulfonamide], the IC50 stood at 21.8 µM.

Compound `O=C(NS(=O)(=O)c1cc2ccccc2o1)c1ccc(Cl)cc1Cl` [Example 17, N-[2,4-dichlorobenzoyl]-benzofuran-2-sulfonamide] returned an IC50 of 19.8 µM.

In the case of `O=C(NS(=O)(=O)c1ccc2ncsc2c1)c1ccc(Cl)cc1Cl` [Example 18, N-[2,4-dichlorobenzoyl]-benzothiazole-6-sulfonamide], the IC50 is 14.2 µM.

In turn, `O=C(NS(=O)(=O)c1ccc2c(c1)OCO2)c1ccc(Cl)cc1Cl` [Example 25, N-[2,4-dichlorobenzoyl]-benzo[1,3]dioxole-5-sulfonamide] had an IC50 of 2.1 µM.

`CN1CCc2ccc(S(=O)(=O)NC(=O)c3ccc(Cl)cc3Cl)cc21` [Example 26, N-[2,4-dichlorobenzoyl]-1-methyl-2,3-dihydro-1H-indole-6-sulfonamide] returned an IC50 of 10 µM.

With `O=C(NS(=O)(=O)c1ccc2c(c1)CC=C2)c1ccc(Cl)cc1Cl` [Example 27, N-[2,4-dichlorobenzoyl]-3H-indene-5-sulfonamide], inhibition was half-maximal at 3.2 µM (IC50).

Compound `O=C(NS(=O)(=O)c1ccc2c(c1)CCC2)c1ccc(Cl)cc1Cl` [Example 28, N-[2,4-dichlorobenzoyl]-indane-5-sulfonamide] came in with an IC50 of 3.2 µM.

Compound `O=C(NS(=O)(=O)c1ccc2c(c1)CCC2=O)c1ccc(Cl)cc1Cl` [Example 29, N-[2,4-dichlorobenzoyl]-1-oxo-indane-5-sulfonamide] registered a half-inhibitory concentration (IC50) of 26.2 µM.

Turning to `Cn1c(S(=O)(=O)NC(=O)c2ccc(Cl)cc2Cl)cc2ccccc21` [Example 31, N-[2,4-dichlorobenzoyl]-1-methyl-indole-2-sulfonamide], half-maximal inhibition (IC50) required 4.6 µM.

Source of the values: patent US7282595B2, “Antitumor benzoylsulfonamides” (Eli Lilly and Company, priority 2003, dated 2007).
